Experimental data taken from patent US7390788B2, “Peptide pharmaceutical compositions” (priority 2005, dated 2008).
Where two headings read alike, the source gives them in different places.

Experiments:
nasal mucosa = conditions: in vivo; cited from earlier work
isolated nasal cilia = conditions: cited from earlier work
HIV BaL = format: cell-based, HIV-1; conditions: dried
Protocol: Peptide was dissolved at 5 mg/ml in water, stored at ambient temperature, ca 23-27° C., and samples tested for biological activity in an HIV infection assay.
Inhibition of HIV infection is studied by utilizing an infection assay in which GHOST CD4 CCR5 cells are infected with HIV BaL, an R5 tropic isolate (Ruff, M R et al., 2001). Infection is detected via viral induction of the hGFP gene (green fluorescent protein) 48 hrs post-infection. Trays are measured in a plate reader to determine fluorescence intensity. All infections are performed by adding fresh culture medium containing approximately 1,000 infectious units of HIV-1 per well (96-well plates).
Samples were then aged by storage at ambient temperature (ca 25° C.) for 14 days prior to antiviral testing. […] In FIG. 5, only the short term 6 hour sample is stored at 4° C., while the other samples are stored at 37° C.
The peptide was dissolved in the indicated concentration of TFE in water and then shaken or agitated for 24 hrs at 37° C. The peptide was subsequently dried down, and the TFE/water mixture removed under vacuum. […] Although TFE is removed, residual traces of TFE within acceptable range for human consumption may remain.
Inhibition of HIV infection was studied by utilizing an infection assay using GHOST CD4 as previously described by Ruff, M R et al., 2001. CCR5 cells are infected with HIV BaL, an R5 tropic isolate. Infection is detected via viral induction of the hGFP gene (green fluorescent protein) about 48 hours post-infection. Trays were measured in a plate reader to determine fluorescence intensity. All infections were performed by adding fresh culture medium containing approximately 1,000 infectious units of HIV-1 per well (96-well plates).

[1] = 2 mg three times daily intranasally, cited from earlier work
[2] = cited from earlier work
HIV [3] = assay: Inhibition of HIV infectivity in vitro by stored DAPTA solutions; format: cell-based
Protocol: Aggregation is discovered to be associated with a loss of biological activity in vitro. Typically, the recommended protocol is to have DAPTA stored at 0.1 mM solutions in water at 4° C.
Aggregation is reduced in the presence of trifluoroethanol (TFE). TFE was selected because of its property of reducing certain types of protein-protein interactions. DAPTA was dissolved in either distilled water, or solutions containing between 60% and 100% TFE. Aggregation was evaluated by assaying inhibition of HIV infectivity, in vitro. […] Also, TFE is capable of disassociating preformed aggregates of DAPTA. Aggregates of DAPTA, formed in distilled water were disrupted by addition of TFE to 80%, as measured by EM.

[4] = 6 mg/day for 12 weeks; cited from earlier work
[5] = patients with moderate neuro-psychological impairment; cited from earlier work
HIV [6] = conditions: cited from earlier work
[7] = subcutaneously, cited from earlier work
[8] = DAPTA fibril formation / aggregation in solution by EM (Example 3); format: physicochemical
Protocol: Preparation of DAPTA solutions. DAPTA was dissolved in water, and solutions maintained at various temperatures and times. To prepare fibrils, DAPTA was prepared at 10 mgs/mL in water and stored overnight at 4° C.
Determining fibril formation.
In solution, DAPTA can be shown to form ordered aggregates by EM, FTIR, and CD and dye binding. Aggregation is promoted by concentration, increased ionic strength, and reduced temperature. Although the kinetics of aggregation appear to vary, from preparation to preparation, aggregation appears to be a property associated with all batches of DAPTA examined as measured by EM.
Fibrillization can be observed in solutions prepared in 0.9% saline (10 mg/mL) when stored at 4° C. in less than 1 hour. At room or ambient temperature, fibril formation can be observed within 48 hours, although there is variation from preparation to preparation. In distilled water, DAPTA solutions at 10 mg/ml readily form aggregates at 4 deg. C., within 2 hrs, and at room temperature, within 1-7 days.

[9] = Phase I, human; cited from earlier work
envelop (gp120) = conditions: 1987 report; cited from earlier work

## benzalkonium chloride [BAC]
Nasal mucosa
  Damage to the nasal mucosa: no significant damage
  Mucosal ciliary clearance after application: slight prolongation
  Nasal mucosal function: no detectable effect
  Saccharine transport time or indicators of proinflammatory effects: did not alter
Isolated nasal cilia
  Ciliotoxicity: ciliotoxic

## D-ala^1-peptide T-amide [DAPTA]
HIV BaL; 0.1 nM DAPTA, TFE Concentration 40 %, shaken 24 hrs at 37° C., reconstituted in water, stored about 3 days
  Percent Reduction in HIV Infection: 0 ± 2%
HIV BaL; 0.1 nM DAPTA, TFE Concentration 60 %, shaken 24 hrs at 37° C., reconstituted in water, stored about 3 days
  Percent Reduction in HIV Infection: 20 ± 4%
HIV BaL; 0.1 nM DAPTA, TFE Concentration 100 %, shaken 24 hrs at 37° C., reconstituted in water, stored about 3 days
  Percent Reduction in HIV Infection: 98 ± 3%
HIV BaL; 80% TFE, shaken 12 hrs at 37 degrees Celsius, in water about three days
  Percent Reduction in HIV Infection: 70 ± 4%
HIV BaL; 80% TFE, shaken 48 hrs at 37 degrees Celsius, in water about three days
  Percent Reduction in HIV Infection: 100 ± 3%
HIV BaL; 80% TFE, shaken about 24 hours at 37 ° C., in water about three days
  Percent Reduction in HIV Infection: 100 ± 5%
HIV BaL; 80% TFE, shaken about 24 hours at Room Temp., in water about three days
  Percent Reduction in HIV Infection: 70 ± 6%
[1]; at least four months of treatment
  Neuropsychological performance vs placebo: no difference
[1]
  Neuropsychological improvement after adjustment for baseline CD4 count: greater improvement (p=0.07)
[2]; high dose (15 mg daily)
  Patients with improved neuro-psychological performance: 4/5
[2]; low dose (1.5 mg daily)
  Patients with improved neuro-psychological performance: 1/4
HIV [3]; 0.1 mM solutions in water at 4° C.
  Storage time to substantial loss of activity (HIV uptake inhibition in vitro): about 6 weeks
HIV [3]; stored in TFE between 60% and 100% vs water
  Activity retained on storage (inhibition of HIV infectivity in vitro): retained more activity
[4]
  Treatment of painful peripheral neuropathy vs placebo: no statistically significant differences
[5]
  Cognitive and neuromotor function compared with controls: improved
HIV [6]; blind NIMH analysis
  Virus levels in stored frozen plasma: significant (p<0.04) treatment effect
HIV [6]; more cognitively impaired patients
  Clinical benefits versus placebo: significant clinical benefits versus placebo
[7]; 3 to 70 weeks
  Adverse drug effects: No adverse drug effects were noted
[7]; initial dose 10 mg daily, nine individuals
  Lower limb pain: complete or subjectively significant resolution of lower limb pain
[8]; 0.9% saline, 10 mg/mL, 4° C.
  Time until fibrillization can be observed: less than 1 hour
[8]; 0.9% saline, 10 mg/mL, room or ambient temperature
  Time until fibril formation can be observed: ≤ 48 h
[8]; aggregates formed in distilled water, TFE added to 80%
  Effect of TFE on preformed aggregates, by EM: disrupted
[8]; distilled water, 10 mg/ml, 4 deg. C.
  Time until aggregates form: ≤ 2 h
[9]
  Toxicity: complete lack of toxicity
Envelop (gp120)
  Concentration that blocks envelop (gp120) binding and inhibits viral infectivity: 10 pM
